Data set [1] concerns PMA-differentiated U937 cells. The experiment in a line: MTT Assay (cell viability). Format: cell-based, Human. Particulars: percentage loss of cell viability; for Cell Viability MTT Assay in D-U937 cells at 4 hr: 4 hr in 5% FCS; for Cell Viability MTT Assay in D-U937 cells at 24 hr: 24 hr in 10% FCS. The method, then: PMA-differentiated U937 cells were pre-incubated with compound for 4 hr in 5% FCS or 10% FCS for 24 hr. The supernatant was replaced with 200 μL of new media and 10 μL of MTT stock solution (5 mg/ml) added to each well. After 1 hr incubation, the media were removed, 200 μL of DMSO added to each well and the plates were shaken lightly for 1 hr prior to reading the absorbance at 550 nm. The percentage loss of cell viability was calculated for each well relative to vehicle (0.5% DMSO)-treatment (Table 3).

A further data set addresses recombinant PI3 kinase α (Homo sapiens (Human), UniProt P42336). The data set is described as follows: Enzyme Inhibition Assay (HTRF PI3K enzyme assay, TR-FRET). Format: biochemical. Particulars: for pIC50: activity range, read-out: PI3 Kinase Inhibition IC50 values at stated Isozyme α. The text has this: (§1) PI3 kinases catalyse the phosphorylation of phosphatidylinositol 4,5-biphosphate (PIP2) to phosphatidylinositol 3,4,5-triphosphate (PIP3) in the presence of ATP and Mg^2+ ions. The PIP3 product can be detected by displacement of biotin-PIP3 from energy transfer complexes consisting of europium labelled anti-GST monoclonal antibody, a GST-tagged Pleckstrin homology (PH) domain, biotinylated PIP3 and streptavidin-allophycocyanin (APC) by the time-resolved fluorescence resonance energy transfer (TR-FRET) (HTRF® PI3K enzyme assay, Millipore). […] The PIP3 product formed by PI3K activity displaces biotin-PIP3 from the complex and results in a loss of energy transfer (decreasing signal).
(§2) The compound to be tested was added, at the desired final concentrations, to a mixture of PIP2 substrate and recombinant PI3 kinase α, δ or γ enzymes (Millipore), and the mixture incubated for 2 hr at RT. […] A stopping solution containing biotinylated PIP3 and the detection mix containing the GST tagged GRP1 pleckstrin homology (PH) domain and fluorophores were then added and the mixture was incubated at RT for 15-18 hr, prior to detection in a fluorescence microplate reader (Varioskan® Flash, ThermoFisher Scientific).
(In general: In TR-FRET formats the signal depends on donor and acceptor labels being close together.)

The target in a further data set is recombinant PI3 kinase γ (Homo sapiens (Human), UniProt P48736). The data set is described as above. Type of data set: biochemical. Conditions: for pIC50: activity range, read-out: PI3 Kinase Inhibition IC50 values at stated Isozyme γ.
recombinant PI3 kinase γ, sequence (P48736 whole entry): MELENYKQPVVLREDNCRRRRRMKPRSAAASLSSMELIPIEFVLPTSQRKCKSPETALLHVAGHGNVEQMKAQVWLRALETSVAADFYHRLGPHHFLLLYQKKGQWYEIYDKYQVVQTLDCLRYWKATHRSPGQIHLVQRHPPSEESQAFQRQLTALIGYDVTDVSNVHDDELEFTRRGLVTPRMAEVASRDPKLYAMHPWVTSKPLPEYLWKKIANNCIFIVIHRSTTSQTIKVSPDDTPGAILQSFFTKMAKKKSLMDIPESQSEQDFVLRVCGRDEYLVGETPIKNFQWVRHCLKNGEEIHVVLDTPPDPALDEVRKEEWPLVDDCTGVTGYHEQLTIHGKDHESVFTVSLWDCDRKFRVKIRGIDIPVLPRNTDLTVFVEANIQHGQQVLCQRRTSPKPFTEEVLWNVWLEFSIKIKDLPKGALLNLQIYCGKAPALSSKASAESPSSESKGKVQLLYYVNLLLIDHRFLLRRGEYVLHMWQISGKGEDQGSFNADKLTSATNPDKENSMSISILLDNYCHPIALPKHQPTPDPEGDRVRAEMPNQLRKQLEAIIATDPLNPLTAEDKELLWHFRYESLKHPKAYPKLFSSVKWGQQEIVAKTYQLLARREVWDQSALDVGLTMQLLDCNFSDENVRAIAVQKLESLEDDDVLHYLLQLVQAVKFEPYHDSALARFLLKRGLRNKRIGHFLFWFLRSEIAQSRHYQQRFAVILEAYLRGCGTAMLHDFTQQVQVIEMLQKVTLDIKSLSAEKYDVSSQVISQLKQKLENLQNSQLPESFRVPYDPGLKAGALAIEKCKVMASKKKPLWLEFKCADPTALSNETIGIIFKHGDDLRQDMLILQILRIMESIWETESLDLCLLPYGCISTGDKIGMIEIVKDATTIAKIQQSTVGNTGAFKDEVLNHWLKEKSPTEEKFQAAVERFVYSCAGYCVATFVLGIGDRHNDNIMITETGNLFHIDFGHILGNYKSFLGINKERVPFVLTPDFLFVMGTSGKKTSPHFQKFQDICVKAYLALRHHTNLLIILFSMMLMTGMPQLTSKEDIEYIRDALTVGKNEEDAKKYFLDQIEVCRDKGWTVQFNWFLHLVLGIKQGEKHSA
Source text: as §1, §2

For a further data set, the target named is recombinant PI3 kinase δ (Homo sapiens (Human), UniProt O00329). The description is as above. Format: biochemical. Conditions: for pIC50: activity range, read-out: PI3 Kinase Inhibition IC50 values at stated Isozyme δ.
recombinant PI3 kinase δ, sequence (O00329 whole entry): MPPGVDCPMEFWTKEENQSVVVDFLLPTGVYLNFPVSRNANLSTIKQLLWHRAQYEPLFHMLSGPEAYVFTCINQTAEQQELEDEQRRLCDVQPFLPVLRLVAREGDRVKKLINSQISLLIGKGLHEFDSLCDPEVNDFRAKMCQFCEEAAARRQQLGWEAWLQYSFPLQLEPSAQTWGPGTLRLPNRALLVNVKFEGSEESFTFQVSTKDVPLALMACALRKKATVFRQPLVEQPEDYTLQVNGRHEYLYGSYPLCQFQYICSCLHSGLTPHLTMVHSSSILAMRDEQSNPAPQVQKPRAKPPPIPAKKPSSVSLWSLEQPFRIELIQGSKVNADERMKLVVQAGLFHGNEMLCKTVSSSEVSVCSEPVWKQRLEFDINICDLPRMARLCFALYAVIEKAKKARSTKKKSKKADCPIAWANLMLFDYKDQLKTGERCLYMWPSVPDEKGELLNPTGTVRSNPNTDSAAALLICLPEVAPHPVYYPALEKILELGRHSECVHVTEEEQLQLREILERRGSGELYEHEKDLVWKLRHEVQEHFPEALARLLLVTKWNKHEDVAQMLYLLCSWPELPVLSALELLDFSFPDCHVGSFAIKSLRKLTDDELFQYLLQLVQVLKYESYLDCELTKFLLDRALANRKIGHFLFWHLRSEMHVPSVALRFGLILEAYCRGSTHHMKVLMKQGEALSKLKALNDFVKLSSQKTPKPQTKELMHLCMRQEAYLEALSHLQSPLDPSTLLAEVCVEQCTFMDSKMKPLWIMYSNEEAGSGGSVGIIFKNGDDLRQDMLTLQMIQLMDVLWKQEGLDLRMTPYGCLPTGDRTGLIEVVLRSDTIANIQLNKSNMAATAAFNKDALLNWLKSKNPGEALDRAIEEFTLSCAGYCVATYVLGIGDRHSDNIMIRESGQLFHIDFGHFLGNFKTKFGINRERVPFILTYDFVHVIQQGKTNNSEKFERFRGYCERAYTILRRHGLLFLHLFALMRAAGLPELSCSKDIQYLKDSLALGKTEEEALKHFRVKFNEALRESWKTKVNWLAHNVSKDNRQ
recombinant PI3 kinase δ, sequence (P27986 whole entry partner): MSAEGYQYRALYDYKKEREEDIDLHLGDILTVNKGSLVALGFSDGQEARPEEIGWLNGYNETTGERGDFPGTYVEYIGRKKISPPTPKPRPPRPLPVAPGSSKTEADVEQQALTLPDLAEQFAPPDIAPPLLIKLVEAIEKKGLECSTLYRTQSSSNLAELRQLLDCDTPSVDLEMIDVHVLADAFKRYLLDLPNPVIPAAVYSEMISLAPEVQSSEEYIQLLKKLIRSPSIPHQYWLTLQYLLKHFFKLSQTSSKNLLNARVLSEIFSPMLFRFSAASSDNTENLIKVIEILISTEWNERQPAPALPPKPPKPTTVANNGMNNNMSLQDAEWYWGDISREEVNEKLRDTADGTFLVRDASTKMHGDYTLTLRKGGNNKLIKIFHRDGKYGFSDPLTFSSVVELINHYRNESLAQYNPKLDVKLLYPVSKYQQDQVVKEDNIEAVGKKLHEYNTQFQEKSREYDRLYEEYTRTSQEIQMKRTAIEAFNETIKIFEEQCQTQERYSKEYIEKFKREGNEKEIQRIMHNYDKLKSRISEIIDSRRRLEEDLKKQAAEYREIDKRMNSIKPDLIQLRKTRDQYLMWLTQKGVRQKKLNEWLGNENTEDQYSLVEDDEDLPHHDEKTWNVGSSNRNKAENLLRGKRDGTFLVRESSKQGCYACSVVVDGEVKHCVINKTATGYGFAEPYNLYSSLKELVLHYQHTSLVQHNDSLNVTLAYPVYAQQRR
Source text: as §1, §2

For data set [2], the system named is H2O2 induced pAkt in D-U937 cells. The experiment in a line: PI3Kδ Cell Based Assay (H2O2 induced pAkt). Particulars: Homo sapiens, dU937; for pIC50: activity range, D-U937 cells, read-out: Cellular Activity IC50 values (H2O2 induced pAkt D-U937 Cells). The protocol: As a means of assessing PI3K 6 activation in response to stimuli, the phosphorylation status of the protein, Akt, a downstream product of PI3K6, signaling was determined. Human monocytic cells (U937 cells), were differentiated to macrophage-type cells by incubation with phorbol myristate acetate (PMA; 100 ng/mL) for 48 to 72 hr. […] The cells were washed with buffer (PBS containing 0.1% Triton X-100) and were incubated with blocking solution (1% BSA in PBS) for 1 hr and were then re-washed with buffer and incubated overnight with either anti-pAkt antibody or anti-pan-Akt antibody (both from Cell Signaling Technology). […] This reaction was stopped by addition of 100 μL of 1N H2SO4 solution. […] The ratio of pAkt signal to total Akt signal was used to quantitate the extent of PI3K δ activation. […] The IC50 values were calculated from the concentration-response curves generated by the serial dilutions of the test compounds (Table 3 and Table 4).

Molecules are shown by their SMILES. pIC50: −log10 of the molar value. Where two headings read alike, the source gives them in different places.

recombinant PI3 kinase α, sequence (P42336 whole entry): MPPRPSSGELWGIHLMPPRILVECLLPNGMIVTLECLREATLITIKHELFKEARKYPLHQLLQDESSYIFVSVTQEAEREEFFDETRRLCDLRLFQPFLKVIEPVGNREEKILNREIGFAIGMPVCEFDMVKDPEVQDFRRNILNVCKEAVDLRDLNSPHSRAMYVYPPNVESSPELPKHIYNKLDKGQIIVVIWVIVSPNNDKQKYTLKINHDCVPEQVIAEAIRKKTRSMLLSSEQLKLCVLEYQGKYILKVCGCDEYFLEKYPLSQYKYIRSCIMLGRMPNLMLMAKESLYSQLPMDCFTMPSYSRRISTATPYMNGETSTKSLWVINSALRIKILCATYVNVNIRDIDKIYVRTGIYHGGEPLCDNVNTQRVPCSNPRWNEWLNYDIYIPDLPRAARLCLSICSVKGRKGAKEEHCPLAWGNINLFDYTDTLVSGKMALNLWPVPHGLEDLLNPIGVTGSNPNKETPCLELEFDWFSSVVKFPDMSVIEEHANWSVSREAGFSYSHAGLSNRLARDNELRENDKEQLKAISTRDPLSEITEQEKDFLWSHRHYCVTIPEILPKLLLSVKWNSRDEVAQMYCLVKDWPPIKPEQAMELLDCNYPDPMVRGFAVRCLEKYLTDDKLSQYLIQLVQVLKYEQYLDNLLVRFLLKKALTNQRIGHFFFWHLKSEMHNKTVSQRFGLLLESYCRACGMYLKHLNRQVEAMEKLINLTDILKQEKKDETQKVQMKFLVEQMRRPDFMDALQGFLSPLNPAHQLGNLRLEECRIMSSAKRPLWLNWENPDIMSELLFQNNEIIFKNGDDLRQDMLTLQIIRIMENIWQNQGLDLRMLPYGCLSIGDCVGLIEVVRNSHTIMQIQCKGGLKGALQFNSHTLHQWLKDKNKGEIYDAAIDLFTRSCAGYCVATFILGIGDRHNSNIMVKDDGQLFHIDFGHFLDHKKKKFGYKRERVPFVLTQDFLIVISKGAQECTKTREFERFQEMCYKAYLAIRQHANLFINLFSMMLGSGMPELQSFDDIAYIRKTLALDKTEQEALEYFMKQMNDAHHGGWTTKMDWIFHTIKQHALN
recombinant PI3 kinase α, sequence (P27986 whole entry partner): as the sequence (P27986 whole entry partner) above

As a reminder, the pIC50 is the negative decadic logarithm of the IC50, by convention in mol/L. As for `CN(C)C(=O)CCCC#Cc1cccc2nc(Cn3nc(-c4ccc(O)cc4)c4c(N)ncnc43)n(Cc3ccccc3Cl)c(=O)c12` [Example 88, 6-(2-((4-Amino-3-(4-hydroxyphenyl)-1H-pyrazolo[3,4-d]pyrimidin-1-yl)methyl)-3-(2-chlorobenzyl)-4-oxo-3,4-dihydroquinazolin-5-yl)-N,N-dimethylhex-5-ynamide], the “Cell Viability MTT Assay in D-U937 cells at 4 hr” value in data set [1] was “− (− <30%)”. Moreover, in data set [1], the “Cell Viability MTT Assay in D-U937 cells at 24 hr” value was “− (− <30%)”. In addition, the pIC50 on recombinant PI3 kinase α is 6.00 to 7.30; on recombinant PI3 kinase γ it was > 7.30; on recombinant PI3 kinase δ it was > 7.30; in data set [2] it was > 8.00.

For `C#Cc1cccc2nc(Cn3nc(-c4ccc(O)cc4)c4c(N)ncnc43)n(Cc3ccc(OC)cc3)c(=O)c12` [Example 46, 2-((4-Amino-3-(4-hydroxyphenyl)-1H-pyrazolo[3,4-d]pyrimidin-1-yl)methyl)-5-ethynyl-3-(4-methoxybenzyl)quinazolin-4(3H)-one], in data set [1], the “Cell Viability MTT Assay in D-U937 cells at 4 hr” value is reported as “− (− <30%)”. The “Cell Viability MTT Assay in D-U937 cells at 24 hr” value in data set [1] is listed as “− (− <30%)”. The pIC50 at recombinant PI3 kinase α is 6.00 to 7.30; on recombinant PI3 kinase γ, 6.00 to 7.30; on recombinant PI3 kinase δ, > 7.30; in data set [2], > 8.00.

Regarding `Nc1ncnc2c1c(-c1ccc(O)cc1)nn2Cc1nc2cccc(C#CCCCC(=O)N3CCOCC3)c2c(=O)n1Cc1ccccc1F` [Example 53, 2-((4-Amino-3-(4-hydroxyphenyl)-1H-pyrazolo[3,4-d]pyrimidin-1-yl)methyl)-3-(2-fluorobenzyl)-5-(6-morpholino-6-oxohex-1-yn-1-yl)quinazolin-4(3H)-one], in data set [1], the “Cell Viability MTT Assay in D-U937 cells at 4 hr” value is listed as “− (− <30%)”. Also, in data set [1], the “Cell Viability MTT Assay in D-U937 cells at 24 hr” value is reported as “− (− <30%)”. The pIC50 on recombinant PI3 kinase α is > 7.30; at recombinant PI3 kinase γ, > 7.30; on recombinant PI3 kinase δ, > 7.30; in data set [2] it was > 8.00.

The term IC50 denotes the concentration needed to halve the response being measured. Consider `Nc1ncnc2c1c(-c1ccc(O)cc1)nn2Cc1nc2cccc(C#CCCCC(=O)N3CCCC3)c2c(=O)n1Cc1ccccc1Cl` [Example 89, 2-((4-Amino-3-(4-hydroxyphenyl)-1H-pyrazolo[3,4-d]pyrimidin-1-yl)methyl)-3-(2-chlorobenzyl)-5-(6-oxo-6-(pyrrolidin-1-yl)hex-1-yn-1-yl)quinazolin-4(3H)-one], for which the “Cell Viability MTT Assay in D-U937 cells at 4 hr” value in data set [1] is recorded as “− (− <30%)”. Also, the “Cell Viability MTT Assay in D-U937 cells at 24 hr” value in data set [1] is reported as “− (− <30%)”. Moreover, the pIC50 at recombinant PI3 kinase α is < 6.00; on recombinant PI3 kinase γ, > 7.30; on recombinant PI3 kinase δ, > 7.30; in data set [2] it was > 8.00. For the same compound, the IC50 on recombinant PI3 kinase α (read-out: PI3 Kinase Inhibition IC50 values at stated Isozyme (nM) α) amounted to 1490 nM; at recombinant PI3 kinase γ (read-out: PI3 Kinase Inhibition IC50 values at stated Isozyme (nM) γ), 47 nM; at recombinant PI3 kinase δ (read-out: PI3 Kinase Inhibition IC50 values at stated Isozyme (nM) δ), 3 nM; in data set [2] (read-out: Cellular Activity IC50 values (H2O2 induced pAkt (nM) D-U937 Cells)), 0.2 nM.

For `Cc1nc(Cn2c(Cn3nc(-c4cccc(O)c4)c4c(N)ncnc43)nc3cccc(C#CCCCC(=O)N4CCOCC4)c3c2=O)cs1` [Example 68, 2-((4-Amino-3-(3-hydroxyphenyl)-1H-pyrazolo[3,4-d]pyrimidin-1-yl)methyl)-3-((2-methylthiazol-4-yl)methyl)-5-(6-morpholino-6-oxohex-1-yn-1-yl)quinazolin-4(3H)-one], the “Cell Viability MTT Assay in D-U937 cells at 4 hr” value in data set [1] is on record as “− (− <30%)”. For the same compound, the “Cell Viability MTT Assay in D-U937 cells at 24 hr” value in data set [1] is “− (− <30%)”. Moreover, the pIC50 at recombinant PI3 kinase α is 6.00 to 7.30; on recombinant PI3 kinase γ, > 7.30; on recombinant PI3 kinase δ, > 7.30; in data set [2], > 8.00.

`Nc1ncnc2c1c(-c1cccc(O)c1)nn2Cc1nc2cccc(C#CCCCC(=O)N3CCC(N4CCOCC4)CC3)c2c(=O)n1Cc1ccccc1Cl` [Example 70, 2-((4-Amino-3-(3-hydroxyphenyl)-1H-pyrazolo[3,4-d]pyrimidin-1-yl)methyl)-3-(2-chlorobenzyl)-5-(6-(4-morpholinopiperidin-1-yl)-6-oxohex-1-yn-1-yl)quinazolin-4(3H)-one]: the “Cell Viability MTT Assay in D-U937 cells at 4 hr” value in data set [1] is “− (− <30%)”. Further, in data set [1], the “Cell Viability MTT Assay in D-U937 cells at 24 hr” value is listed as “− (− <30%)”. For the same compound, the pIC50 on recombinant PI3 kinase α was 6.00 to 7.30; on recombinant PI3 kinase γ it was > 7.30; on recombinant PI3 kinase δ, > 7.30; in data set [2], > 8.00.

Consider `Nc1ncnc2c1c(-c1ccc(O)cc1)nn2Cc1nc2cccc(C#CCCCNC3CCCC3)c2c(=O)n1Cc1ccccc1Cl` [Example 7, 2-((4-Amino-3-(4-hydroxyphenyl)-1H-pyrazolo[3,4-d]pyrimidin-1-yl)methyl)-3-(2-chlorobenzyl)-5-(5-(cyclopentylamino)pent-1-ynyl)quinazolin-4(3H)-one], for which the “Cell Viability MTT Assay in D-U937 cells at 4 hr” value in data set [1] is “− (− <30%)”. Moreover, the “Cell Viability MTT Assay in D-U937 cells at 24 hr” value in data set [1] is “− (− <30%)”. Moreover, the pIC50 on recombinant PI3 kinase α is 6.00 to 7.30; at recombinant PI3 kinase γ it was 6.00 to 7.30; on recombinant PI3 kinase δ, > 7.30; in data set [2], > 8.00.

Consider `Nc1ncnc2c1c(-c1cccc(O)c1)nn2Cc1nc2cccc(C#CCCCCC(=O)N3CCOCC3)c2c(=O)n1Cc1ccccc1Cl` [Example 55, 2-((4-Amino-3-(3-hydroxyphenyl)-1H-pyrazolo[3,4-d]pyrimidin-1-yl)methyl)-3-(2-chlorobenzyl)-5-(7-morpholino-7-oxohept-1-yn-1-yl)quinazolin-4(3H)-one], for which the “Cell Viability MTT Assay in D-U937 cells at 4 hr” value in data set [1] is “− (− <30%)”. For the same compound, the “Cell Viability MTT Assay in D-U937 cells at 24 hr” value in data set [1] is reported as “− (− <30%)”. In addition, the pIC50 at recombinant PI3 kinase α is 6.00 to 7.30; on recombinant PI3 kinase γ, > 7.30; on recombinant PI3 kinase δ, > 7.30; in data set [2] it was > 8.00.

`Nc1ncnc2c1c(-c1ccc(O)cc1)nn2Cc1nc2cccc(C#CCCCC(=O)N3CCCCC3)c2c(=O)n1Cc1ccccc1Cl` [Example 58, 2-((4-Amino-3-(4-hydroxyphenyl)-1H-pyrazolo[3,4-d]pyrimidin-1-yl)methyl)-3-(2-chlorobenzyl)-5-(6-oxo 6-(piperidin-1-yl)hex-1-yn-1-yl)quinazolin-4(3H)-one]: the “Cell Viability MTT Assay in D-U937 cells at 4 hr” value in data set [1] is “− (− <30%)”. In addition, the “Cell Viability MTT Assay in D-U937 cells at 24 hr” value in data set [1] is recorded as “− (− <30%)”. The pIC50 on recombinant PI3 kinase α was 6.00 to 7.30; on recombinant PI3 kinase γ, > 7.30; on recombinant PI3 kinase δ, > 7.30; in data set [2], > 8.00.

In the case of `COCC#Cc1cccc2nc(Cn3nc(-c4cccc(O)c4)c4c(N)ncnc43)n(Cc3ccc(Cl)cc3)c(=O)c12` [Example 26, 2-((4-Amino-3-(3-hydroxyphenyl)-1H-pyrazolo[3,4-d]pyrimidin-1-yl)methyl)-3-(4-chlorobenzyl)-5-(3-methoxyprop-1-ynyl)quinazolin-4(3H)-one], in data set [1], the “Cell Viability MTT Assay in D-U937 cells at 4 hr” value was “− (− <30%)”. The “Cell Viability MTT Assay in D-U937 cells at 24 hr” value in data set [1] is listed as “− (− <30%)”. The pIC50 was 6.00 to 7.30 at recombinant PI3 kinase α, 6.00 to 7.30 at recombinant PI3 kinase γ, > 7.30 on recombinant PI3 kinase δ and > 8.00 in data set [2].

On to `C#Cc1cccc2nc(Cn3nc(-c4ccc(O)cc4)c4c(N)ncnc43)n(Cc3ccccc3)c(=O)c12` [Example 44, 2-((4-Amino-3-(4-hydroxyphenyl)-1H-pyrazolo[3,4-d]pyrimidin-1-yl)methyl)-3-benzyl-5-ethynylquinazolin-4(3H)-one], for which the “Cell Viability MTT Assay in D-U937 cells at 4 hr” value in data set [1] is on record as “− (− <30%)”. Besides, in data set [1], the “Cell Viability MTT Assay in D-U937 cells at 24 hr” value is given as “− (− <30%)”. Also, the pIC50 on recombinant PI3 kinase α is < 6.00; at recombinant PI3 kinase γ it was 6.00 to 7.30; on recombinant PI3 kinase δ it was > 7.30; in data set [2] it was > 8.00.
